Common to all, as to assay type: cell-based
Assay [1] has as its system SILv44 TCR-transduced CD8+ Jurkat T cells.
In assay [2] the test system is R6C12 TCR-transduced CD8+ Jurkat T cells.
Assay [3] relates to T4H2 TCR-transduced CD8+ Jurkat T cells.

A word on the EC50: it is the concentration at which the effect is half-maximal. A higher EC50 goes with weaker potency.

Take `CC[C@H](C)[C@H](N)C(=O)N[C@@H](CC(C)C)C(=O)N[C@@H](CC(=O)O)C(=O)N[C@@H](CCC(N)=O)C(=O)N[C@H](C(=O)N1CCC[C@H]1C(=O)N[C@@H](Cc1ccccc1)C(=O)N[C@@H](CO)C(=O)N[C@H](C(=O)O)C(C)C)C(C)C` [T2Leu]: the values for the EC50 in assay [1], in assay [2] and in assay [3] were 1400 ± 300 nM, 11000 ± 3000 nM and 300 ± 100 nM, respectively.

(Values after paper PMC8184619 (Molecular immunology, 2021).)
